Laboratory results taken from PMC3025922 (BMC Biology, 2010).
Values joined by “and” are separate entries in the source; they are usually repeats but may differ in a detail not shown here. Identical values can stand only once. Like-named read-outs stand apart in the source and are kept apart here.

Experiments:
[1] = tested on: nuclear p27 in LNCaP-S14 cells; assay type: cell-based, human; conditions: primary screening
[2] = target: PDGF receptor tyrosine kinase; conditions: vendor annotation of library compound (Biomol EI-215); cited from earlier work
[3] = tested on: LNCaP cells; assay: Cell cycle analysis by flow cytometry, LNCaP; assay type: cell-based, human
Description: (§1) Cells were exposed to SMIPs (40 μM) for 24 h and 48 h. Cells were trypsinized, washed with PBS and suspended in 600 μL PBS. Cells were fixed by adding 1.4 mL cold absolute ethanol and kept at -20°C for at least 12 h. After washing once with PBS, the cells were resuspended in 250 μL PBS containing 2.5 μg RNAse A and incubated for 45 min at room temperature. Staining was done by adding 40 μg/mL of propidium iodine followed by incubation for 15 min at room temperature. DNA-bound fluorescence was read at 564 to 606 nm using FACSort and FACSCanto flow cytometers (BD Biosciences) at the Flow Cytometry Facility of the Sanford-Burnham Medical Research Institute. Distribution of cells in the different cell cycle phase was determined with ModFit LT 3.2.1 or FlowJo 8.6 software. Aggregates were excluded from the analysis manually using pulse shape or identified by automated modelling in ModFit LT.

[4] = tested on: LNCaP-S14 cells; assay: Cell cycle analysis by flow cytometry, LNCaP-S14; assay type: cell-based, human
Description: as §1

[5] = tested on: DU145 cells; assay: Cell cycle analysis by flow cytometry, DU145; assay type: cell-based, human
Description: as §1

[6] = tested on: PC3 cells; assay: Cell cycle analysis by flow cytometry, PC3; assay type: cell-based, human
Description: as §1

[7] = tested on: IMR90 cells; assay: Cell cycle analysis by flow cytometry, IMR90; assay type: cell-based, human
Description: as §1

[8] = tested on: LNCaP-S14 cells; assay: Cell cycle distribution in LNCaP-S14 transfected with siRNAs for p27 and p21; assay type: cell-based, human
Description: as §1
LNCaP-S14 cells were seeded in 6 cm dishes or six-well-plates coated with poly-lysine the day before transfection. 10-20 nM of siRNA was transfected using DharmaFECT 3 (Thermo Scientific) according to the manufacturer's instructions. Briefly, siRNAs were dissolved in siRNA suspension buffer (Quiagen) at 20 μM, heated to 90°C for 1 min and incubated at 37°C for 1 h. siRNAs were added to the DharmaFECT 3 reagent diluted in Optimem media (1:100) and incubated for 20 min at room temperature. The mix was added to the cells for 24 h. Treatment with SMIPs (40 μM) or vehicle was carried on for another 24 h. Cells were obtained for FACS or lysed for immunoblotting analysis as described above. Untransfected cells as well as cells transfected with non-specific siRNA were used as controls. Silencer® Negative Control siRNA No.1 from Ambion (Applied Biosciences, CA, USA) was used as non-specific control siRNA. siRNA target sequences for p27 and p21 synthesized by IDT (Integrated DNA Technologies Inc, Iowa, USA) were as follows; p27 siRNA: […], and p21 siRNA: […] [56].

[9] = tested on: p27 protein levels in LNCaP-S14 cells; assay: Immunoblot quantification of p27, LNCaP-S14; assay type: cell-based, human
Description: (§2) Total cell lysate from cells treated with vehicle (DMSO) or compounds were obtained by incubating cells in lysis buffer (25 mM Tris-HCl pH 7.4, 150 mM NaCl, 0.5% Triton X-100, protease inhibitors) for 15 min at 4°C. The supernatant was collected by centrifugation and the amount of protein was determined with a Bio-Rad protein assay (Bio-Rad) using BSA as standard. Equal amounts of protein were subjected to SDS-PAGE (4%-20% gels, Invitrogen) and transferred to PVDF membranes. The membranes were blocked with TBST (50 mM Tris-HCl pH 7.5, 150 mM NaCl, 0.05% Tween-20) containing 5% non-fat dry milk or bovine serum albumin (BSA) for 1 h at room temperature, followed by incubation in primary antibodies 4°C overnight. Membranes were washed and incubated with secondary antibodies conjugated to HRP (Jackson ImmunoResearch Laboratories) for 1 h at room temperature. Signals were visualized using the ECL Western Blotting Substrate (Pierce Biotechnology, IL, USA) according to the manufacturer's instructions. Membranes were stripped using Restore™ Western Blot Stripping Buffer (Pierce Biotechnology). Films were scanned and quantification of the bands was performed using Image J software http://rsbweb.nih.gov/ij/.

[10] = tested on: p21 protein levels in LNCaP-S14 cells; assay: Immunoblot quantification of p21, LNCaP-S14; assay type: cell-based, human
Description: as §2

[11] = tested on: p27 protein levels in LNCaP cells; assay: Immunoblot quantification of p27, LNCaP; assay type: cell-based, human
Description: as §2

[12] = tested on: p21 protein levels in LNCaP cells; assay: Immunoblot quantification of p21, LNCaP; assay type: cell-based, human
Description: as §2

[13] = tested on: p27 protein levels in PC3 cells; assay: Immunoblot quantification of p27, PC3; assay type: cell-based, human
Description: as §2

[14] = tested on: p21 protein levels in PC3 cells; assay: Immunoblot quantification of p21, PC3; assay type: cell-based, human
Description: as §2

[15] = tested on: p27 protein levels in DU145 cells; assay: Immunoblot quantification of p27, DU145; assay type: cell-based, human
Description: as §2

[16] = tested on: p21 protein levels in DU145 cells; assay: Immunoblot quantification of p21, DU145; assay type: cell-based, human
Description: as §2

[17] = tested on: p27 protein levels in HeLa cells; assay: Immunoblot quantification of p27, HeLa; assay type: cell-based, human
Description: as §2

[18] = tested on: p21 protein levels in HeLa cells; assay: Immunoblot quantification of p21, HeLa; assay type: cell-based, human
Description: as §2

[19] = tested on: p27 protein levels in IMR90 cells; assay: Immunoblot quantification of p27, IMR90; assay type: cell-based, human
Description: as §2

[20] = tested on: p21 protein levels in IMR90 cells; assay: Immunoblot quantification of p21, IMR90; assay type: cell-based, human
Description: as §2

[21] = tested on: p27 stability in LNCaP-S14 cells; assay: Protein half-life by cycloheximide chase; assay type: cell-based, human; conditions: human
Description: LNCaP-S14 cells were treated with SMIPs (40 μM) for 18 h followed by the addition of 100 μg/mL cycloheximide (CHX). Cell extracts were obtained as described above at different times after CHX addition. Protein lysate was subjected to SDS-PAGE and immunoblotting for p27, p21 and SKP2. Tubulin was used as loading control. Protein half-lives were calculated using a web based calculator http://www.1728.com/halflife.htm.

[22] = tested on: LNCaP-S14 cells; assay: Cell Death Detection ELISA (cytoplasmic histone-associated DNA fragments); assay type: cell-based, human
Description: Apoptosis was measured using the Cell Death Detection ELISA (Roche, Basel, Switzerland) following the manufacturer's instructions. Briefly, LNCaP-S14 cells (0.1 × 10^6) were seeded in 12-well plates and treated with SMIPs (40 μM) for 24 h. Cells were collected in medium, spun at 1000 rpm, and resuspended in 1 mL PBS at the specified time points (day 1 to day 3). The cell suspension was divided into two parts. The first half was used for determination of cytoplasmic histone-associated DNA fragments (ELISA), the second for protein determination to normalize the ELISA data to the amount of input protein.

[23] = tested on: SKP2 levels in LNCaP-S14 cells; assay type: cell-based, human
[24] = tested on: PC3 cells; assay: MTT cytotoxicity assay, PC3; conditions: Homo sapiens, read-out: IC50 (MTT cytotoxicity)
Description: (§3) LNCaP-S14 (10,000 cells), PC3, DU145 or IMR90 cells (5000 cells) were seeded in 96-well plates and treated with increasing concentrations of the respective SMIPs for 72 h. Cell viability was assessed using the MTT cell proliferation assay (ATCC®, Middlesex, UK) according to the manufacturer's protocol. IC50 was calculated using the BioDataFit 1.02 software http://www.changbioscience.com/stat/ec50.html.

[25] = tested on: DU145 cells; assay: MTT cytotoxicity assay, DU145; conditions: Homo sapiens, read-out: IC50 (MTT cytotoxicity)
Description: as §3

[26] = tested on: LNCaP-WT cells; assay: MTT cytotoxicity assay, LNCaP-WT; conditions: Homo sapiens, read-out: IC50 (MTT cytotoxicity)
Description: as §3

[27] = tested on: LNCaP-S14 cells; assay: MTT cytotoxicity assay, LNCaP-S14; conditions: Homo sapiens, 72 h, read-out: IC50 (MTT cytotoxicity)
Description: as §3

CC(C)(C)c1cc(C=C(C#N)C#N)cc(C(C)(C)C)c1O [1362L21]
Z score (aver) ([1]; nuclear p27 in LNCaP-S14 cells): 6.21
Clasf ([1]; S = strong, M = medium, W = weak by Z score): S (strong (Z score > 5))
IC50 [2]: 1.2 µM

CCCCc1ccc(NC(C)=O)c(C)c1 [SMIP004]
Cell cycle distribution G1 [3]: 81.7 and 87.3
Cell cycle distribution G2 [3]: 9.8 and 6.6
Cell cycle distribution G1 [4]: 72.3 and 75.8
Cell cycle distribution G2 [4]: 7.1 and 6.4
Cell cycle distribution S [4]: 19.1 and 14.7
Cell cycle distribution G1 [5]: 75.7 and 79.7
Cell cycle distribution G2 [5]: 8.0 and 10.4
Cell cycle distribution S [5]: 14.1 and 9.0
Cell cycle distribution G1 [6]: 58.5 and 65.8
Cell cycle distribution G2 [6]: 25.7 and 24.3
Cell cycle distribution S [6]: 14.3 and 8.5
Cell cycle distribution G1 [7]: 68.6 and 77.6
Cell cycle distribution G2 [7]: 13.2 and 10.9
Cell cycle distribution S [7]: 18.2 and 11.5
% G1 [8]: 66.92% and 62.86% and 69.79% and 66.56%
% G2 [8]: 13.34% and 17.13% and 13.32% and 15.94%
% S [8]: 19.75% and 20.02% and 16.90% and 17.50%
p27 accumulation by immunoblotting [9]: ~ threefold
p27 protein level (immunoblot, DMSO = 1.0) [9]: 2.4 ± 0.7
p21 protein level (immunoblot, DMSO = 1.0) [10]: 2.8 ± 0.7
p27 protein level (immunoblot, DMSO = 1.0) [11]: 2.1 ± 1.1
p21 protein level (immunoblot, DMSO = 1.0) [12]: 2.7 ± 0.1
p27 protein level (immunoblot, DMSO = 1.0) [13]: 1.1 ± 0.3
p21 protein level (immunoblot, DMSO = 1.0) [14]: 1.7 ± 0.9
p27 protein level (immunoblot, DMSO = 1.0) [15]: 1.3 ± 0.1
p21 protein level (immunoblot, DMSO = 1.0) [16]: 1.7 ± 0.5
p27 protein level (immunoblot, DMSO = 1.0) [17]: 1.1 ± 0.2
p21 protein level (immunoblot, DMSO = 1.0) [18]: 1.1 ± 0.1
p27 protein level (immunoblot, DMSO = 1.0) [19]: 1.2 ± 0.3
p21 protein level (immunoblot, DMSO = 1.0) [20]: 1.1 ± 0.0
p27 half-life [21]: > 6 h
increase in the amount of mono and oligonucleosomes [22]: three- to fivefold
SKP2 levels (endogenous and exogenous) by immunoblotting [23]: decrease
IC50 ([24]; PC-3, 72 h): > 80 µM
IC50 ([24]; PC-3, 96 h): > 80 µM
IC50 ([25]; DU-145, 72 h): > 80 µM
IC50 ([25]; DU-145, 96 h): > 80 µM
IC50 ([26]; 72 h): 40 µM
IC50 ([26]; 96 h): 2.4 µM
IC50 [27]: 1.09 µM
